Measured values as given in patent US20060167229A1, “Biologically active peptide conjugates” (priority 2002, published 2006).
“Also recorded” adds a separate entry of the source. Marks after values point to notes of the source that are not given here. Ends that are not written are not given here.

Legend:
S180 sarcoma = test: Growth of transplanted S180 sarcoma; type: in vivo, BALB/c mice; details: controls: IL-2, IFN-γ 3 × 10^5 IU/kg, cyclophosphamide 20 mg/kg; saline 1.29 ± 0.50
Method: (§1) Intraperitoneal injection, once per day. […] Treatment of all groups with testing substance lasted for 30 days or until the animal died unless otherwise specified.
Stock S180 sarcoma cells were incubated in DMEM/F12 medium supplemented with 10% fetal bovine serum, 37° C., 5% CO2 for 72 hrs, then washed 3-4 times with Hank's solution at room temperature. Adjust the cell concentration to 1-2×10^9 per litre with Hank's solution. […] The mice were killed by cervical vertebra dislocation. Vigorously growing and non-disrupted tumor masses were harvested and washed clean with sterile saline. The tissue was dispersed in saline to a homogenous cell suspension, in a ratio of 1 g tissue to 4 ml saline. The sarcoma bearing mice model was prepared with an injection of 0.2 ml cell suspension through the armpit. Administration of test substance treatment started as described in section Method 1.
2.2 The Tumor Growth Inhibition Index was Calculated According to the Following Formula: Tumor growth inhibition index=(mean tumor weight of control group−mean tumor weight of treatment group)÷mean tumor weight of control group 3.

L1210 leukemia = test: Survival of mice with transplanted L1210 leukemia; type: in vivo, DBA/2 mice; details: controls: IL-2, IFN-γ 3 × 10^5 IU/kg, cyclophosphamide 20 mg/kg; saline 16.6 ± 5.6
Method: as §1
Stock L1210 cells were incubated in DMEM/F12 medium supplemented with 10% fetal bovine serum, 37° C./5% CO2 for 72 hrs, then washed 3-4 times with Hank's solution, and adjusted to […]. 0.1 ml of the cell suspension was implanted into the abdominal cavity of several healthy DBA mice for 6-8 days. The mice were then killed by cervical vertebra dislocation and their ascitic fluid collected aseptically. The cell concentration of the collected ascitic fluid was adjusted to 1×10^5 per ml with Hank's solution. 0.1 ml of the cell suspension was implanted into each of the testing animal and the survival data of the animals recorded. Treatment started in the testing animals as described in section Method 1. Mean survival day was obtained by the Kaplan-meier method in the Survival option of the SPSS software. If the animal survived longer than the experiment, the survival days was entered as the duration of the experiment. The survival index was calculated according to the following formula: Survival index=(mean survival days of treatment group−mean survival days of control group)÷mean survival days of control group 6. The Effect of Peptides on the Humoral Immunity of C57BL/6 Mice Bearing Transplanted B16 Melanoma and that on the Metastatic Potential of the Inoculated Melanoma Cells

[1] = system: Masugi nephritis rat model; test: Masugi nephritis rat model; details: for urine protein level: 24 h urine; for spleen index / Serum creatinine level: after three weeks of treatment; for spleen index: placebo 4.8 ± 1.1, normal 2.4 ± 0.1; for Serum creatinine level: placebo 265 ± 212, normal 80 ± 1; for renal pathological microscopic examination: peptides 50 μg/kg/day i.p. 3 weeks, 6 heaviest kidneys per group
thymus gland = test: Immunity organ weight test, thymus gland index; type: in vivo, BALB/c mice; details: for weight of thymus gland (thymus gland index), X ± SD (%): healthy mice, saline 0.12 ± 0.02; for effect on the weight of the thymus gland (summary): statistically significant difference from saline in any of the dosage groups 0.5-500 μg/kg/day
Method: (§2) One day after the last test substance administration (day 16), the liver, spleen, and thymus gland were separated and blotted dry with filter paper and weighed. The phagocytosis index α was calculated as below: α=(^3√{square root over ( )}K)(W÷WLS)
Thymus gland index (%)=(thymus weight/body weight)×100%

mononuclear phagocyte = test: Carbon particle clearance test, phagocytosis function; type: in vivo, BALB/c mice; set-up: key to X ± SD (phagocytotic index): α = cube root of K × (body weight ÷ liver+spleen weight); details: for X ± SD (phagocytotic index): healthy mice, saline 5.1 ± 0.6; for effect on the phagocytotic activity of mononuclear phagocyte (summary): statistically significant difference from saline in any of the dosage groups 0.5-500 μg/kg/day
Method: On the next day after the last test substance administration (day 16), the mice were injected with […] body weight India ink (5 times dilution with normal saline) from the tail vein.
One minute and five minutes after Indian ink injection, 20 μl blood was obtained from the eye canthus with a heparinized tubing. The blood was mixed with 2 ml 0.1% w/v Na2CO3 and then OD680 nm obtained. The outline clear index K was calculated by the following formula: K=(lgA1−lgA2)÷(t2−t1)
as §2

NK cell = NK cell cytotoxicity activity test (spleen cells of treated mice against YAC-1 target cells, MTT); type: in vivo, BALB/c mice
Method: The above substances were all dissolved in 0.5 ml saline and injected intraperitoneal (i.p.) for 15 continuous days, once per day.
Ten mice per group. The day after the last test substance administration, the mice were sacrificed by cervical dislocation. The spleen was isolated aseptically and manually dispersed in cold D-Hank's solution using an injection needle. The dispersed cell suspension was further sieved through a 100 gauge 150 μm diameter stainless steel sieve. After centrifugation at 200 g for 10 minutes, the supernatant was discarded. The cell pellet was re-suspended in 10 volume of Tris-NH4Cl buffer and then kept standing still for 10 minutes at room temperature. The suspended cells were collected by centrifugation at 150 g for 10 minutes. The cells were washed 2-4 times with cold D-Hank's solution by re-suspending and collecting by centrifugation with condition as described above. The washed cells were then diluted to the desired cell densities by RPMI-1640 culture medium, containing 10% fetal bovine serum.
Mice spleen cells were prepared to 4×10^6/ml as described in section 1.1 above. Target cells YAC-1 were brought to log phase and adjusted to 1×10^5/ml. Using a 96 wells cell culture plate, […] were added to the control well containing only the spleen cells; […] and 100 μl culture medium were added to the control well containing only target cells; 100 μl mouse spleen cells and 100 μl target cells were added to the NK activity assay well. Three parallel sets of the above were prepared per mouse.
Samples were centrifuged at 150 g for 10 minutes to collect the cells. The supernatant was discarded and 50 μl/well MTT of 1 mg/ml was added. The reaction-mixture was then shaken for 2 minutes, and incubated at 37° C., 5% CO2 for 4 hours. The supernatant was discarded after centrifugation at 150 g for 10 minutes. […] 40 mM HCl-2-propanol was added and shaken for 3 minutes. An ELISA reader was used to obtain OD570 nm of each well referenced at 630 nm.

spleen = test: Immunity organ weight test, spleen index; type: in vivo, BALB/c mice
Method: as §2
Spleen index (%)=(spleen weight/body weight)×100%

anti-SRBC antibody = test: Sheep Red Blood Cell (SRBC) hemolysis test, antibody formation; type: in vivo, BALB/c mice; details: for anti-SRBC antibody formation, X ± SD (Unit): healthy mice, SRBC day 12 (IFN-γ, IL-2 3×10^5 IU/kg/day), saline 32 ± 7
Method: Sheep red blood cells (SRBC) were prepared by collecting blood from cervical vein and put into a sterile flask with glass beads. The flask was shaken for 3 minutes and the blood then mixed with Alsever solution (glucose 2.05 g, NaCl 0.4 g, […] 0.8 g, adjust to 100 ml with distilled water) and stored at 4° C. Immediately before use, samples were centrifuged at 130 g, 5 minutes to collect the SRBC. The cells were washed two times by re-suspension and centrifugation in normal saline. Then the cell pellet was collected by centrifugation at 180 g for 10 minutes and re-suspended in saline to make the final working SRBC suspension, 2% (v/v).
Complement was prepared by adding 10 volumes of fresh Cavy serum into one volume centrifuge packed SRBC, and then gently shaking for 30 minutes at 4° C. The SRBC was removed by centrifugation at 200 g for 10 minutes. 10 volumes of normal saline were added to obtain the working complement solution.
The test substances were administered as described in section 1.1, plus intraperitoneal injection 0.2 ml SRBC per mouse on day 12. On the day after the last test substance administration (day 16), blood was collected from the eye canthus and left at room temperature for one hour for serum exudation. After centrifugation at 200 g for 10 minutes, the serum was diluted by 500 times with normal saline.
To 1 ml diluted mouse serum of each mouse, 0.5 ml SRBC suspension was added. Ice cold. Then 1 ml working complement solution was added and incubated at 37° C. water bath for 10 minutes. Reactions were terminated by ice cold. Samples were then centrifuged at 200 g for 10 minutes to obtain the supernatant.
To 1 ml of this supernatant, 3 ml Drabkin solution was added and left at room temperature for 10 minutes. OD540 nm was obtained.
Reference OD540 nm was obtained by mixing 0.25 ml SRBC suspension with Drabkin solution to 4 ml and placed at room temperature for 10 minutes before OD540 nm was taken.
Sample serum index=(OD540 nm of test sample÷reference OD540 nm)×500

[2] = Week 1, peptides 50 μg/kg/day, hydrocortisone 3.3 mg/kg/day i.p., placebo 22.9 ± 22, normal 1.7 ± 1.3
[3] = Week 2, peptides 50 μg/kg/day i.p., hydrocortisone dose halved after first week, placebo 17.2 ± 14.5, normal 2.3 ± 1.1
[4] = Week 3, peptides 50 μg/kg/day i.p., hydrocortisone dose halved after first week, placebo 20.2 ± 29.0, normal 0.4 ± 0.2
[5] = peptide 0.5 μg/kg/day i.p. 15 days (IFN-γ, IL-2 3×10^5 IU/kg/day)
[6] = peptide 5 μg/kg/day i.p. 15 days (IFN-γ, IL-2 3×10^5 IU/kg/day)
[7] = peptide 50 μg/kg/day i.p. 15 days (IFN-γ, IL-2 3×10^5 IU/kg/day)
[8] = statistically significant difference from saline in any of the dosage groups 0.5-500 μg/kg/day
[9] = peptide 0.5 μg/kg/day i.p. 15 days

Row | Molecule | urine protein level [1, 2] [mg] | urine protein level [1, 3] [mg] | urine protein level [1, 4] [mg] | spleen index ([1]; peptides 50 μg/kg/day i.p.) | Serum creatinine level ([1]; peptides 50 μg/kg/day i.p.) [µmol/L] | renal pathological microscopic examination [1] | weight of thymus gland (thymus gland index), X ± SD (%) (thymus gland; [5]) | weight of thymus gland (thymus gland index), X ± SD (%) (thymus gland; [6]) | weight of thymus gland (thymus gland index), X ± SD (%) (thymus gland; [7]) | effect on the weight of the thymus gland (summary) (thymus gland) | effect on the phagocytotic activity of mononuclear phagocyte (summary) (mononuclear phagocyte) | anti-SRBC antibody formation, X ± SD (Unit) (anti-SRBC antibody; [9]) | further results
1 | O=P1(N(CCCl)CCCl)NCCCO1 (stereo not shown) [Cyclophosphamide, reference compound] | – | – | – | – | – | – | – | – | – | – | – | – | Tumor weight (S180 sarcoma): 0.68 ± 0.32 g; Survival days (L1210 leukemia): 24.0 ± 5.3 days
2 | C[C@]12CCC(=O)C=C1CC[C@@H]1[C@@H]2[C@@H](O)C[C@@]2(C)[C@H]1CC[C@]2(O)C(=O)CO [hydrocortisone, Hydrocortisone, reference compound] | 3.1 ± 2.0 | 7.5 ± 7.7 | 7.6 ± 7.1 | 4.5 ± 1.4 ×10^−3 | 239 ± 107 | – | – | – | – | – | – | – | growth rate of the rats ([1]; peptides 50 μg/kg/day, hydrocortisone 3.3 mg/kg/day i.p.): slower growth rate than normal
3 | Phe Gln Gln Met (FQQM; printed: Phe Gln Gln Met) [CMS030] | 5.4 ± 3.4 | 9.5 ± 16.2 | 2.4 ± 1.5 | 3.0 ± 0.5 ×10^−3 | 93 ± 1 | all pathological parameters of all rats were normal | 0.24 ± 0.05*^@^ % | 0.23 ± 0.07*^ % | 0.25 ± 0.04*^@^ % | increase | enhance | 19 ± 7 | weight of thymus gland (thymus gland index), X ± SD (%) (thymus gland; peptide 500 μg/kg/day i.p. 15 days (IFN-γ, IL-2 3×10^5 IU/kg/day)): 0.30 ± 0.03*^@^ %; X ± SD (phagocytotic index) (mononuclear phagocyte; [7]): 6.3 ± 0.5; NK cell cytotoxic activity, X ± SD (%) (NK cell; healthy mice, peptide 500 μg/kg/day i.p. 15 days (IFN-γ, IL-2 3×10^5 IU/kg/day), saline 63 ± 9): 91 ± 5*^@^ %; effect on the cytotoxic activity of NK cells (summary) (NK cell; [8]): increase; weight of spleen (spleen index), X ± SD (%) (spleen; Table 30, healthy mice, peptide 5 μg/kg/day i.p. 15 days, saline 0.53 ± 0.05): 0.64 ± 0.09 %; effect on the weight of the spleen (summary) (spleen; [8]): increase; anti-SRBC antibody formation, X ± SD (Unit) (anti-SRBC antibody; peptide 5 μg/kg/day i.p. 15 days): 158 ± 37*^@^ Unit; anti-SRBC antibody formation, X ± SD (Unit) (anti-SRBC antibody; peptide 50 μg/kg/day i.p. 15 days): 141 ± 33*^@^ Unit; effect on the synthesis of anti-SRBC antibody upon the antigenic challenge (summary) (anti-SRBC antibody; [8]): enhance; also recorded: inhibit
4 | VGMGQKDSY | 7.0 ± 3.7 | 5.5 ± 7.9 | 3.3 ± 3.4 | 3.3 ± 0.8 ×10^−3 | 67 ± 1 | all pathological parameters of all rats were normal | 0.20 ± 0.03 % | 0.24 ± 0.04*^@^ % | 0.23 ± 0.02*^@^ % | increase | enhance | 3 ± 1 | X ± SD (phagocytotic index) (mononuclear phagocyte; [6]): 6.7 ± 1.2; anti-SRBC antibody formation, X ± SD (Unit) (anti-SRBC antibody; peptide 500 μg/kg/day i.p. 15 days): 66 ± 16 Unit
